Measured values: patent publication US10188743B2, “Cytisine-linked isoflavonoid antineoplastic agents for the treatment of cancer” (UNIVERSITY OF KENTUCKY RESEARCH FOUNDATION, priority 2016, dated 2019)

Legend:
Assay type in all cases: cell-based
LS174T cells = experiment: Seahorse XF assay (OCR, ECAR)
Text: We further characterized the effects of cytisine-linked isoflavonoid 10c on energy metabolism using a Seahorse XF assay (FIG. 4D-F) that measured oxygen consumption rate (OCR), which was an indicator of mitochondrial respiration, and measured extracellular acidification rate (ECAR), which was largely the result of glycolysis. […] Similar results were found in DLD-1 colon cancer cells and PC-3 prostate cancer cells (FIGS. 8 and 9). These OCR findings were consistent with the prior evaluation of these cytisine-linked isoflavonoids that targeted the hydratase activity in HSD17B4, inhibited VLCFA beta-oxidation, depressed acetyl CoA generation, decreased the ratio of ATP/AMP, and triggered AMPK activation (FIG. 5).
Seahorse assay: 3×10^4 cells were seeded in XF96 Cell Culture microplate (80 μL of 3.75×10^5 cells/m:). On the next day, cells were treated with DMSO or inhibitors and analyzed using the Seahorse analyzer in Redox Metabolism Shared Resource Facility (RM SRF) at the Markey Cancer Center.

LS174T cancer cells [1] = experiment: Acetyl-CoA analysis of treated cells
Method: Cell Metabolism. Acetyl-CoA analysis: Cells grown in 6 cm plates were treated with DMSO or inhibitors, and harvested in lysis buffer (20 mM Tris pH 7.5, 150 mM NaCl, 1 mM EDTA, 1 mM EGTA, 1% Triton X-100, 2.5 mM sodium pyrophosphate, 1 mM Na3VO4, 1 ug/mL Leupeptin, 1 mM PMSF and 1:100 Protease inhibitor cocktail). Supernatants were analyzed using PicoProbe Acetyl CoA kit (Abcam, ab87546).

LS174T cancer cells [2] = experiment: ATP analysis of treated cells
Method: ATP analysis: Cells growing in 12-well plates were treated with DMSO or inhibitors, and lysed by adding 1 mL boiling D.D. water. Supernatants were analyzed by luminescence using ATP Determination Kit (Invitrogen, A22066).

[3] = test system: LS174T colon cancer cells; experiment: Cancer cell proliferation (Vi-Cell viability and number); settings: 10 μM of compound
Method: (§1) Cell Culture. LS74T colon cancer cells were cultured in MEM/EBSS (Hyclone SH30024) and PC-3 prostate cancer cells were cultured in DMEM/F-12 HAM Mixture (Sigma D8437) containing 10% Fetal Bovine Serum (Atlanta Biological S11150). Cells (3.5×10^4 cells per well) were split into 12-well plates. After 24 h, 10 μM of each compound were added to each well. DMSO was used as a control. Each experiment was done in triplicate. Cell viability and number were analyzed using the Vi-Cell XR Cell Viability Analyzer (Beckman Coulter). To knock-down HSD17B4 levels, PC-3 and LS174 cell lines were infected with lenti-virus carrying pLKO.1-control shRNA and pLKO.1-HSD17B4b shRNA, respectively. Control shRNA and HSD17B4b shRNA cloned in pLKO.1 vectors with puromycin-resistance selection marker were purchased from Sigma. Lentiviral stocks were prepared as previously described (Yu, 2012).

[4] = test system: PC-3 prostate cancer cells; experiment: as above; settings: 10 μM of compound
Method: as §1

[5] = test system: acetyl CoA carboxylase (ACC); experiment: ACC phosphorylation / activation downstream of AMPK (Western blotting); settings: PC-3 and LS174T cells
Method: Biochemistry. Western blotting: Cells were lysed in the appropriate volume of lysis buffer (50 mM HEPES, 100 mM NaCl, 2 mM EDTA, 1% glycerol, 50 mM NaF, 1 mM Na3VO4, 1% Triton X-100, with protease inhibitors). The following antibodies were used: HSD17B4 (GeneTex, GTX103864), AMPK (Cell Signaling, 2532), pAMPK (Cell Signaling, 2535), ACC (Cell Signaling, 3676), pACC (Cell Signaling, 11818), p^70 (Cell Signaling, 2708), p-p^70 (Cell Signaling, 9914), S6 (Cell Signaling, 2217), pS6 (Cell Signaling, 4858), MCCA (GeneTex, GTX110062), tubulin (Hybridoma Bank, E7), Actin (Sigma, A1978), His-tag (BD Pharmingen, 552564).

O=c1c(-c2ccc(Cl)cc2)coc2cc(OCCN3C[C@@H]4C[C@@H](C3)c3cccc(=O)n3C4)ccc12 [Compound 10c, (1 S,5S)-3-(2-((3-(4-chlorophenyl)-4-oxo-4H-chromen-7-yl)oxy)ethyl)-3,4,5,6-tetrahydro-1H-1,5-methanopyrido[1,2-a][1,5]diazocin-8(2H)-one]
respiration rates (LS174T cells): significantly reduced the respiration rates | levels of ATP production (LS174T cells; OCR and ECAR assays): reduced the levels of ATP production | level of acetyl CoA (LS174T cancer cells [1]): decreased the levels | level of ATP (LS174T cancer cells [2]): decreased the levels | proliferation of LS174T cells [3]: significantly inhibited the proliferation | proliferation of PC-3 cells [4]: significantly inhibited the proliferation | ACC phosphorylation [5]: induced appreciable ACC phosphorylation
